The target in this assay is Nav 1.7 (Homo sapiens (Human), UniProt Q15858). Kind of assay: in-vitro Nav 1.7 PX (IC50). Type of assay: cell-based.
Where [1] appears, read: in-vitro Nav 1.7 PX data (PatchXpress).

The structures appear in SMILES notation. pIC50: −log10 of the molar value. Where two headings read alike, the source gives them in different places.

Nav 1.7, sequence (Q15858 whole entry): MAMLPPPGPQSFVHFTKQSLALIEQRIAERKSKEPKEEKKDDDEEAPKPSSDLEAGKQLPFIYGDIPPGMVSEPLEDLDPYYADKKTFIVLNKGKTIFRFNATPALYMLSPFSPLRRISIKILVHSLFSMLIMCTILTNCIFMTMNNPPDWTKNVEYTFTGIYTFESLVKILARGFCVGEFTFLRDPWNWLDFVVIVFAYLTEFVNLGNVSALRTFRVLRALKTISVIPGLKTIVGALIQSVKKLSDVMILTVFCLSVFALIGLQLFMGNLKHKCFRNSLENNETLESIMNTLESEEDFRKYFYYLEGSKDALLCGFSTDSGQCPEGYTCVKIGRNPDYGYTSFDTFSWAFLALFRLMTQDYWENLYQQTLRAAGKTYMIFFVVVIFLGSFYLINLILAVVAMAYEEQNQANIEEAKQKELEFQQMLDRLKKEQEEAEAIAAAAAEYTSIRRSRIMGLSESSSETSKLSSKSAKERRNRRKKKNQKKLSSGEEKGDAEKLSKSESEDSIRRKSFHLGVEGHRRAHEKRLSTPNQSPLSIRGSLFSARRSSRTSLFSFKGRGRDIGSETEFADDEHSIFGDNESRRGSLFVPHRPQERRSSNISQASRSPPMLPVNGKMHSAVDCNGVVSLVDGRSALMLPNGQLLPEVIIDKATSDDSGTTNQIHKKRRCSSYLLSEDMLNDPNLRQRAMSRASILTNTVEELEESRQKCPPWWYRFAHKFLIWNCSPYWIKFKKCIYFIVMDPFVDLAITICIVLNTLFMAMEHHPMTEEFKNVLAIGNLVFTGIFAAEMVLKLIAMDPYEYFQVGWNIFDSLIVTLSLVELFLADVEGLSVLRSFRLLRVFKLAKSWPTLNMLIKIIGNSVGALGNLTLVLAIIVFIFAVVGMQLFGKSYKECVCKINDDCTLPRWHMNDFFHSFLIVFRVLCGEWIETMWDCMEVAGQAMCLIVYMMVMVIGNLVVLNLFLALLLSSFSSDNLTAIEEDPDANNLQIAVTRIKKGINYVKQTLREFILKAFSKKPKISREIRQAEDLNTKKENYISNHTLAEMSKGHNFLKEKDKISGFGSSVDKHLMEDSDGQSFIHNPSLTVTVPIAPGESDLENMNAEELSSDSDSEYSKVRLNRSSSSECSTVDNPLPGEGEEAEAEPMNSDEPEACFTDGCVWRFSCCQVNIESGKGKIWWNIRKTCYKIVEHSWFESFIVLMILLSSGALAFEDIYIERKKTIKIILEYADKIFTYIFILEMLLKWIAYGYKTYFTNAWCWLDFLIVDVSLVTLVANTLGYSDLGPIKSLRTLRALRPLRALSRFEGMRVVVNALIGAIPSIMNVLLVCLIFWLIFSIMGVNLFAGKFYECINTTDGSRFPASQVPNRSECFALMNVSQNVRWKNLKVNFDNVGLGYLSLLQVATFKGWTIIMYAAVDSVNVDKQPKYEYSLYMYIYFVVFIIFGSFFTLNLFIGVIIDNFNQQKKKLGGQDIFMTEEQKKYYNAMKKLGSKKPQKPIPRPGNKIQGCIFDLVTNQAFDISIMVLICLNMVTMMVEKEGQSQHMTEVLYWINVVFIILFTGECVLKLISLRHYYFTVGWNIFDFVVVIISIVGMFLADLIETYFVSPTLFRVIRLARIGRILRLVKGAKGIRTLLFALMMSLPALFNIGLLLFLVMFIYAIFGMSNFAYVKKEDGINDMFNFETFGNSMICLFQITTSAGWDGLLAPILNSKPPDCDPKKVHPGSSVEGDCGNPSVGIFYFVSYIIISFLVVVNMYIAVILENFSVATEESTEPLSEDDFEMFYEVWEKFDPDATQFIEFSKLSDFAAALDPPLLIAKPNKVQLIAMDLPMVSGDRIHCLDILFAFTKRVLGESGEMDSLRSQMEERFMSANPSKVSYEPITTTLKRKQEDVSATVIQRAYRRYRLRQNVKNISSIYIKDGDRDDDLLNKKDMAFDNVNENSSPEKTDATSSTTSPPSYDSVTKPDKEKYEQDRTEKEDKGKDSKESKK

For the compound `COc1cc(C#CC2CCCC2)c(F)cc1-n1c(=O)ccc2cc(S(=O)(=O)Nc3ncco3)ccc21` [Example 1136, 1-(4-(cyclopentylethynyl)-5-fluoro-2-methoxyphenyl)-N-1,3-oxazol-2-yl-2-oxo-1,2-dihydro-6-quinolinesulfonamide], where the note is “in-vitro Nav 1.7 PX data”, the pIC50 is 7.32.

`COc1cc(-c2cc(Cl)ccc2C#N)c(F)cc1-n1c(=O)ccc2cc(S(=O)(=O)Nc3ccon3)ccc21` [Example 758, 1-(5′-chloro-2′-cyano-2-fluoro-5-methoxy-4-biphenylyl)-N-3-isoxazolyl-2-oxo-1,2-dihydro-6-quinolinesulfonamide] showed a negative logarithm of the IC50 (pIC50) (in-vitro Nav 1.7 PX data) of 7.70.

`N#CCOc1cc(Br)c(F)cc1-n1c(=O)ccc2cc(S(=O)(=O)Nc3ccon3)ccc21` [Example 623, 1-(4-bromo-2-(cyanomethoxy)-5-fluorophenyl)-N-(isoxazol-3-yl)-2-oxo-1,2-dihydroquinoline-6-sulfonamide] had a pIC50 under setting [1] of 5.11.

Compound `CCCOc1cc(NS(=O)(=O)c2ccc3c(ccc(=O)n3-c3cc(F)c(Br)cc3OC)c2)ncn1` (atropisomer, axis not shown; (P)) [Example 1186, (P)-1-(4-bromo-5-fluoro-2-methoxyphenyl)-2-oxo-N-(6-propoxy-4-pyrimidinyl)-1,2-dihydro-6-quinolinesulfonamide] had a pIC50 of 6.61.

For the compound `COc1ccc(-c2cc(F)cc(Cl)c2)cc1-n1c(=O)ccc2cc(S(=O)(=O)Nc3ccncn3)ccc21` [Example 610, 1-(3′-chloro-5′-fluoro-4-methoxy-3-biphenylyl)-2-oxo-N-4-pyrimidinyl-1,2-dihydro-6-quinolinesulfonamide], the pIC50 (in-vitro Nav 1.7 PX data) was 7.89.

As for `COc1cc(Br)c(F)cc1-n1c(=O)ccc2cc(S(=O)(=O)Nc3cc(OCC4CC4)ncn3)ccc21` (atropisomer, axis not shown; (P)) [Example 1183, (P)-1-(4-bromo-5-fluoro-2-methoxyphenyl)-N-(6-(cyclopropylmethoxy)-4-pyrimidinyl)-2-oxo-1,2-dihydro-6-quinolinesulfonamide], the pIC50 was 5.58.

In turn, `COc1cc(C)ccc1-c1ccc(-n2c(=O)ccc3cc(S(=O)(=O)Nc4ccon4)ccc32)c(OC)c1` [Example 1063, 1-(2′,3-dimethoxy-4′-methyl-4-biphenylyl)-N-3-isoxazolyl-2-oxo-1,2-dihydro-6-quinolinesulfonamide] had a pIC50 under setting [1] of 7.01.

In turn, `COc1nc(Oc2cccc(Cl)c2C)c(Cl)cc1-n1c(=O)ccc2cc(S(=O)(=O)Nc3ccon3)ccc21` [Example 1226, 1-(5-chloro-6-(3-chloro-2-methylphenoxy)-2-methoxy-3-pyridinyl)-N-3-isoxazolyl-2-oxo-1,2-dihydro-6-quinolinesulfonamide] gave a pIC50 of 6.50.

For the compound `COc1ccc(-c2cccc(F)c2)cc1-n1c(=O)ccc2cc(S(=O)(=O)Nc3ccon3)ccc21` (atropisomer, axis not shown; (M)) [Example 484, (M)-1-(3′-fluoro-4-methoxy-3-biphenylyl)-N-3-isoxazolyl-2-oxo-1,2-dihydro-6-quinolinesulfonamide], the pIC50 is 4.49.

In turn, `COc1cc(-c2cccc(OC(C)C)c2)ccc1-n1c(=O)ccc2cc(S(=O)(=O)Nc3nccc(C)n3)ccc21` (atropisomer, axis not shown; (P)) [Example 1206, (P)-1-(3-methoxy-3′-(1-methylethoxy)-4-biphenylyl)-N-(4-methyl-2-pyrimidinyl)-2-oxo-1,2-dihydro-6-quinolinesulfonamide] had a pIC50 of 6.23.

Compound `COc1ccc(CC#N)cc1-n1c(=O)ccc2cc(S(=O)(=O)Nc3ccon3)ccc21` [Example 1146, 1-(5-(cyanomethyl)-2-methoxyphenyl)-N-3-isoxazolyl-2-oxo-1,2-dihydro-6-quinolinesulfonamide] showed a negative logarithm of the IC50 (pIC50) of 5.44.

Take `COc1nc(NC2CCCC2)c(Cl)cc1-n1c(=O)ccc2cc(S(=O)(=O)Nc3ccon3)ccc21` [Example 648, 1-(5-chloro-6-(cyclopentylamino)-2-methoxy-3-pyridinyl)-N-3-isoxazolyl-2-oxo-1,2-dihydro-6-quinolinesulfonamide]: the pIC50 (in-vitro Nav 1.7 PX data) is 6.01.

Take `COc1cc(-c2cc(F)cc(C(F)(F)F)c2)ccc1-n1c(=O)ccc2cc(S(=O)(=O)Nc3cnccn3)ccc21` [Example 1094, 1-(3′-fluoro-3-methoxy-5′-(trifluoromethyl)-4-biphenylyl)-2-oxo-N-2-pyrazinyl-1,2-dihydro-6-quinolinesulfonamide]: the pIC50 (in-vitro Nav 1.7 PX data) is 7.16.

For the compound `COc1cc(C#CC2CCCC2)ccc1-n1c(=O)ccc2cc(S(=O)(=O)Nc3cccnn3)ccc21` (atropisomer, axis not shown; (P)) [Example 1239, (P)-1-(4-(cyclopentylethynyl)-2-methoxyphenyl)-2-oxo-N-3-pyridazinyl-1,2-dihydro-6-quinolinesulfonamide], the pIC50 was 6.95.

In turn, `COc1cc(-c2cccc(Cl)c2)cc(F)c1-n1c(=O)ccc2cc(S(=O)(=O)Nc3ccon3)ccc21` (atropisomer, axis not shown; (P)) [Example 320, (P)-1-(3′-chloro-3-fluoro-5-methoxy-4-biphenylyl)-N-3-isoxazolyl-2-oxo-1,2-dihydro-6-quinolinesulfonamide] gave a pIC50 of 6.85.

`O=c1ccc2cc(S(=O)(=O)Nc3ccon3)ccc2n1-c1ccc(-c2cccc(F)c2)cc1CC(O)CO` (racemic) [Example 327, 1-(3-((2R)-2,3-dihydroxypropyl)-3′-fluoro-4-biphenylyl)-N-3-isoxazolyl-2-oxo-1,2-dihydro-6-quinolinesulfonamide, 1-(3-((2S)-2,3-dihydroxypropyl)-3′-fluoro-4-biphenylyl)-N-3-isoxazolyl-2-oxo-1,2-dihydro-6-quinolinesulfonamide] showed a pIC50 of 5.25.

With `COc1cc(-c2cccc(Cl)c2)cc(F)c1-n1c(=O)ccc2cc(S(=O)(=O)Nc3ccon3)ccc21` (atropisomer, axis not shown; (M)) [Example 319, (M)-1-(3′-chloro-3-fluoro-5-methoxy-4-biphenylyl)-N-3-isoxazolyl-2-oxo-1,2-dihydro-6-quinolinesulfonamide], the pIC50 was 6.68.

The compound `COc1ccc(-c2cc(F)cc(Cl)c2)cc1-n1c(=O)ccc2cc(S(=O)(=O)Nc3cnccn3)ccc21` [Example 876, 1-(3′-chloro-5′-fluoro-4-methoxy-3-biphenylyl)-2-oxo-N-2-pyrazinyl-1,2-dihydro-6-quinolinesulfonamide] showed a pIC50 (in-vitro Nav 1.7 PX data) of 6.69.

`COc1cc(-c2cccc(OC(C)C)c2)ccc1-n1c(=O)ccc2cc(S(=O)(=O)Nc3cccc(F)n3)ccc21` (atropisomer, axis not shown; (P)) [Example 1208, (P)-N-(6-fluoro-2-pyridinyl)-1-(3-methoxy-3′-(1-methylethoxy)-4-biphenylyl)-2-oxo-1,2-dihydro-6-quinolinesulfonamide] had a pIC50 of 6.59.

With `COc1cc(-c2ccc(F)c(F)c2)ccc1-n1c(=O)ccc2cc(S(=O)(=O)Nc3ccnc(C)n3)ccc21` [Example 900, 1-(3′,4′-difluoro-3-methoxy-4-biphenylyl)-N-(2-methyl-4-pyrimidinyl)-2-oxo-1,2-dihydro-6-quinolinesulfonamide], for the setting “in-vitro Nav 1.7 PX data”, the pIC50 was 6.55.

Under “in-vitro Nav 1.7 PX data”, `COc1cc(-c2ccc(Cl)c(C)c2)c(F)cc1-n1c(=O)ccc2cc(S(=O)(=O)Nc3cnsn3)ccc21` [Example 1072, 1-(4′-chloro-2-fluoro-5-methoxy-3′-methyl-4-biphenylyl)-2-oxo-N-1,2,5-thiadiazol-3-yl-1,2-dihydro-6-quinolinesulfonamide] gave a negative logarithm of the IC50 (pIC50) of 7.74.

For the compound `COc1nc(OCc2ccc(F)c(C(F)(F)F)c2)c(Cl)cc1-n1c(=O)ccc2cc(S(=O)(=O)Nc3ccon3)ccc21` [Example 1215, 1-(5-chloro-6-((4-fluoro-3-(trifluoromethyl)benzyl)oxy)-2-methoxy-3-pyridinyl)-N-3-isoxazolyl-2-oxo-1,2-dihydro-6-quinolinesulfonamide], the pIC50 is 7.62.

With `COc1cc(-c2cc(F)cnc2OC)c(C)cc1-n1c(=O)ccc2cc(S(=O)(=O)Nc3ccon3)ccc21` (atropisomer, axis not shown; (P)) [Example 426, (P)-1-(4-(5-fluoro-2-methoxy-3-pyridinyl)-2-methoxy-5-methylphenyl)-N-3-isoxazolyl-2-oxo-1,2-dihydro-6-quinolinesulfonamide], the pIC50 was 7.20.

On to `COc1cc(-c2ccc(Cl)c(F)c2)ccc1-n1c(=O)ccc2cc(S(=O)(=O)Nc3ccon3)ccc21` (atropisomer, axis not shown; (P)) [Example 580, (P)-1-(4′-chloro-3′-fluoro-3-methoxy-4-biphenylyl)-N-3-isoxazolyl-2-oxo-1,2-dihydro-6-quinolinesulfonamide], for which the pIC50 was 7.96.

Compound `COc1cc(-c2ccc(Cl)c(C)c2)ccc1-n1c(=O)ccc2cc(S(=O)(=O)Nc3ccon3)ccc21` (atropisomer, axis not shown; (P)) [Example 432, (P)-1-(4′-chloro-3-methoxy-3′-methyl-4-biphenylyl)-N-3-isoxazolyl-2-oxo-1,2-dihydro-6-quinolinesulfonamide] gave a pIC50 of 8.05.

With `COc1nc(-c2cc(F)cc(F)c2)c(Cl)cc1-n1c(=O)ccc2cc(S(=O)(=O)Nc3ncccn3)ccc21` [Example 1081, 1-(5-chloro-6-(3,5-difluorophenyl)-2-methoxy-3-pyridinyl)-2-oxo-N-2-pyrimidinyl-1,2-dihydro-6-quinolinesulfonamide], under “in-vitro Nav 1.7 PX data”, the pIC50 was 5.38.

With `COc1cc(-c2cccc(F)c2Cl)ccc1-n1c(=O)ccc2cc(S(=O)(=O)Nc3ccon3)ccc21` [Example 1058, 1-(2′-chloro-3′-fluoro-3-methoxy-4-biphenylyl)-N-3-isoxazolyl-2-oxo-1,2-dihydro-6-quinolinesulfonamide], the pIC50 under setting [1] was 7.42.

In the case of `COc1cc(-c2ccc(C#N)cc2)c(F)cc1-n1c(=O)ccc2cc(S(=O)(=O)Nc3ccon3)ccc21` [Example 754, 1-(4′-cyano-2-fluoro-5-methoxy-4-biphenylyl)-N-3-isoxazolyl-2-oxo-1,2-dihydro-6-quinolinesulfonamide], the pIC50 (in-vitro Nav 1.7 PX data) is 6.88.

The values are drawn from patent US9212182B2, “Bicyclic sulfonamide compounds as sodium channel inhibitors” (AMGEN INC., priority 2013, dated 2015).
